The target of this assay is T1, NS5B (Hepatitis C virus genotype 1b, UniProt Q9WMX2).
T1 construct: 3 nM NS5B, 20 nM polyC RNA template
Briefly: Polymerase assay, incorporation of radiolabeled GTP with biotinylated oligoG13 primer and polycytidylic acid RNA template. Type of assay: biochemical. To be noted: polyC RNA template, biotin-oligoG13 primer, tritiated GTP, 3 nM NS5B, 30° C., 2 hours. The procedure:
The polymerase activity was also assayed by measuring incorporation of radiolabeled GTP into an RNA product using a biotinylated oligoG13 primer with a polycytidylic acid RNA template. Typically, the assay mixture (40 μL) contains 50 mM HEPES (pH 7.3), 2.5 mM magnesium acetate, 2 mM sodium chloride, 37.5 mM potassium acetate, 5 mM DTT, 0.4 U/mL RNasin, 2.5% glycerol, 3 nM NS5B, 20 nM polyC RNA template, 20 nM biotin-oligoG13 primer, and 0.2 μM tritiated guanosine triphosphate. Test compounds were initially dissolved and diluted in 100% DMSO and further diluted into aqueous buffer, producing a final concentration of 5% DMSO. Typically, compounds were tested at concentrations between 0.2 nM and 10 μM. Reactions were started with addition of tritiated guanosine triphosphate and allowed to continue at 30° C. for 2 hours. Reactions were quenched with 100 μL stop buffer containing 10 mM EDTA and 1 μg/mL streptavidin-coated scintillation proximity beads. Reaction plates were incubated at 4° C. for 10 hours and then incorporation of radioactivity was determined by scintillation counting. The table below lists the IC50 values of compounds determined using this procedure.

Structures are written as SMILES.

T1 sequence (Q9WMX2 2420-3010): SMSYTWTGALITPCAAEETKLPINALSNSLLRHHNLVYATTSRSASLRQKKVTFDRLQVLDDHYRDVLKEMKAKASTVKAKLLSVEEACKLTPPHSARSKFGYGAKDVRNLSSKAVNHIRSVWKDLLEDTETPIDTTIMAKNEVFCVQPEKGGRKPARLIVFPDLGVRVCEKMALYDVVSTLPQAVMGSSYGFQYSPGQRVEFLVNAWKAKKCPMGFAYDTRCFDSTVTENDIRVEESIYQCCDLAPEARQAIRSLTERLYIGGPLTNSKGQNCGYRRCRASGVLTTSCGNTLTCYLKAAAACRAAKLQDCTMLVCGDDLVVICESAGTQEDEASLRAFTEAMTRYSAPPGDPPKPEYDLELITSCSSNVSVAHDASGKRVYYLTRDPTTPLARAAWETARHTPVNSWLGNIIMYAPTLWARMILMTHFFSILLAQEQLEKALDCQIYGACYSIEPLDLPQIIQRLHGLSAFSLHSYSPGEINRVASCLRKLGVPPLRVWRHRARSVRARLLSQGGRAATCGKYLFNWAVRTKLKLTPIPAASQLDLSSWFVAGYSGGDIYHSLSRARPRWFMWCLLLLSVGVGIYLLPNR

In the case of `CCN(C)Cc1c(C(=O)N(C)C)n2c3c(cccc13)-c1c(C3CCCCC3)c3ccc(C(=O)O)cc3n1CC2` [Compound 312], it took 4 nM to reach half-maximal inhibition (IC50).
In the case of `NCC[C@H]1CCN2CCn3c(c(C4CCCCC4)c4ccc(C(=O)O)cc43)-c3cccc1c32` [Compound 303] it was 6.81 nM; in that of `NCCC1CCN2CCn3c(c(C4CCCCC4)c4ccc(C(=O)O)cc43)-c3cccc1c32` (single isomer, unassigned) [Compound 302, 4-(2-Aminoethyl)-15-cyclohexyl-5,6,8,9-tetrahydro-4H-indolo[1′,2′:4,5][1,4]diazepino[6,7,1-ij]quinoline-12-carboxylic acid], 2.68 nM; in that of `CN(C)S(=O)(=O)NC(=O)c1ccc2c(C3CCCCC3)c3n(c2c1)CCN1CC[C@@H](N)c2cccc-3c21` [Compound 299, (4R)-4-amino-15-cyclohexyl-N-[(dimethylamino)sulfonyl]-5,6,8,9-tetrahydro-4H-indolo[1′,2′:4,5][1,4]diazepino[6,7,1-ij]quinoline-12-carboxamide], 1 nM.
In the case of `CN(C)C(=O)c1c(CN(C)C(=O)C(C)(C)N2CCCC2)c2cccc3c2n1CCCn1c-3c(C2CCCCC2)c2ccc(C(=O)O)cc21` [Compound 314] it was 11 nM.
In the case of `N[C@@H]1CCN2CCn3c(c(C4CCCCC4)c4ccc(C(=O)NC5CC5)cc43)-c3cccc1c32` [Compound 298, (4R)-4-amino-15-cyclohexyl-N-cyclopropyl-5,6,8,9-tetrahydro-4H-indolo[1′,2′:4,5][1,4]diazepino[6,7,1-ij]quinoline-12-carboxamide] it was 7.17 nM; in that of `CCN(C)Cc1c(C(=O)N2CCN(C(C)=O)CC2)n2c3c(cccc13)-c1c(C3CCCCC3)c3ccc(C(=O)O)cc3n1CCC2` [Compound 325], 7 nM; in that of `N[C@H]1CCN2CCn3c(c(C4CCCCC4)c4ccc(C(=O)O)cc43)-c3cccc1c32` [Compound 275], 10.1 nM.
In turn, `CC(C)CNC1CCN2CCn3c(c(C4CCCCC4)c4ccc(C(=O)O)cc43)-c3cccc1c32` (stereo not drawn) [Compound 278] had a half-maximal inhibitory concentration (IC50) of 2.57 nM.
In the case of `CCN(CC)Cc1c(C(=O)N(C)C)n2c3c(cccc13)-c1c(C3CCCCC3)c3ccc(C(=O)O)cc3n1CCC2` [Compound 306] it was 8 nM.
Consider `CCN(C)Cc1c(C(=O)NS(=O)(=O)N(C)C)n2c3c(cccc13)-c1c(C3CCCCC3)c3ccc(C(=O)O)cc3n1CCC2` [Compound 321], for which the half-inhibitory concentration (IC50) came to 8 nM.
For the compound `CC(C)(C)OC(=O)N[C@@H]1CCN2CCn3c(c(C4CCCCC4)c4ccc(C(=O)O)cc43)-c3cccc1c32` [Compound 294], the IC50 came to 1.55 nM.
In the case of `CCN(C)Cc1c(C(=O)N2CCN(S(C)(=O)=O)CC2)n2c3c(cccc13)-c1c(C3CCCCC3)c3ccc(C(=O)O)cc3n1CCC2` [Compound 318] it was 9 nM; in that of `O=C(O)c1ccc2c(C3CCCCC3)c3n(c2c1)CCN1CCC(N2CCOCC2)c2cccc-3c21` (stereo not drawn) [Compound 289], 2.03 nM; in that of `CCC1(CC)C(=O)N2CCCn3c(c(C4CCCCC4)c4ccc(C(=O)O)cc43)-c3cccc1c32` [Compound 266, 12-cyclohexyl-1,1-diethyl-2-oxo-1,2,5,6-tetrahydro-4H-[1,5]diazocino[1,2-a:5,4,3-h′i′]diindole-9-carboxylic acid], 11 nM.
In the case of `CC(C)N[C@@H]1CCN2CCn3c(c(C4CCCCC4)c4ccc(C(=O)O)cc43)-c3cccc1c32` [Compound 292, (4R)-15-cyclohexyl-4-(isopropylamino)-5,6,8,9-tetrahydro-4H-indolo[1′,2′:4,5][1,4]diazepino[6,7,1-ij]quinoline-12-carboxylic acid] it was 2.02 nM.
In the case of `COCCNC1CCN2CCn3c(c(C4CCCCC4)c4ccc(C(=O)O)cc43)-c3cccc1c32` (stereo not drawn) [Compound 283] it was 4.3 nM.
As to `CCCN[C@@H]1CCN2CCn3c(c(C4CCCCC4)c4ccc(C(=O)O)cc43)-c3cccc1c32` [Compound 291], inhibition was half-maximal at 1.94 nM (IC50). Compared with the last compound, the IC50 is about 2.2-fold lower.
In the case of `CC1(C)C(=O)N2CCn3c(c(C4CCCCC4)c4ccc(C(=O)O)cc43)-c3cccc(c32)[C@H]1N` [Compound 498] it was 20 nM; in that of `O=C(O)c1ccc2c(C3CCCCC3)c3n(c2c1)CCCn1cc(CNS(=O)(=O)C2CC2)c2cccc-3c21` [Compound 304, 12-Cyclohexyl-1-{[(cyclopropylsulfonyl)amino]methyl}-5,6-dihydro-4H-[1,5]diazocino[1,2-a:5,4,3-h′i′]diindole-9-carboxylic acid], 9 nM; in that of `NC1CCN2CCn3c(c(C4CCCCC4)c4ccc(C(=O)O)cc43)-c3cccc1c32` (stereo not drawn) [Compound 273, 4-Amino-15-cyclohexyl-5,6,8,9-tetrahydro-4H-indolo[1′,2′:4,5][1,4]diazepino[6,7,1-ij]quinoline-12-carboxylic acid], 4.39 nM.
`O=C(O)c1ccc2c(C3CCCCC3)c3n(c2c1)CCCN1C(=O)C2(CC2)c2cccc-3c21` [Compound 269, 12′-cyclohexyl-2′-oxo-5′,6′-dihydro-4′H-spiro[cyclopropane-1,1′-[1,5]diazocino[1,2-a:5,4,3-h′i′]diindole]-9′-carboxylic acid] registered an IC50 of 21 nM.
In the case of `CCN(C)Cc1c(C(=O)N2CC[C@@H](NC(C)=O)C2)n2c3c(cccc13)-c1c(C3CCCCC3)c3ccc(C(=O)O)cc3n1CCC2` [Compound 326] it was 6 nM; in that of `CCN(C)Cc1c(C(=O)N(C)C)n2c3c(cccc13)-c1c(C3CCCCC3)c3ccc(C(=O)NS(=O)(=O)C4CC4)cc3n1CCC2` [Compound 316], 5 nM; in that of `NCCNC1CCN2CCn3c(c(C4CCCCC4)c4ccc(C(=O)O)cc43)-c3cccc1c32` (stereo not drawn) [Compound 284], 6.22 nM.
`CC(C)N1CCCC[C@H]1C(=O)N(C)Cc1c(C(=O)N(C)C)n2c3c(cccc13)-c1c(C3CCCCC3)c3ccc(C(=O)O)cc3n1CCC2` [Compound 313] came in with a half-inhibitory concentration (IC50) of 2 nM.
As to `O=C(O)c1ccc2c(C3CCCCC3)c3n(c2c1)CCCN1C(=O)Cc2cccc-3c21` [Compound 270, 12-cyclohexyl-2-oxo-1,2,5,6-tetrahydro-4H-[1,5]diazocino[1,2-a:5,4,3-h′i′]diindole-9-carboxylic acid], 26 nM corresponded to half-maximal inhibition (IC50). This IC50 lies about 13-fold higher than the previous one.
Take `CC(C)N1CCC[C@H]1C(=O)N[C@@H]1CCN2CCn3c(c(C4CCCCC4)c4ccc(C(=O)O)cc43)-c3cccc1c32` [Compound 300, (4R)-15-cyclohexyl-4-[(1-isopropyl-L-prolyl)amino]-5,6,8,9-tetrahydro-4H-indolo[1′,2′:4,5][1,4]diazepino[6,7,1-ij]quinoline-12-carboxylic acid]: inhibition was half-maximal at 0.769 nM (IC50).
In the case of `CCN(C)Cc1c(C(=O)NS(=O)(=O)C2CC2)n2c3c(cccc13)-c1c(C3CCCCC3)c3ccc(C(=O)O)cc3n1CCC2` [Compound 322] it was 9 nM.
In the case of `O=C(O)c1ccc2c(C3CCCCC3)c3n(c2c1)CCN1CCC(N2CCCCC2)c2cccc-3c21` (stereo not drawn) [Compound 288] it was 1.8 nM; in that of `O=C(O)c1ccc2c(C3CCCCC3)c3n(c2c1)CCCn1cc(N2CCCCC2)c2cccc-3c21` [Compound 261], 3 nM.
In the case of `CN(C)C(=O)c1c(CN2CCCC2)c2cccc3c2n1CCCn1c-3c(C2CCCCC2)c2ccc(C(=O)O)cc21` [Compound 309] it was 6 nM.
In turn, `O=C(O)c1ccc2c(C3CCCCC3)c3n(c2c1)CCN1CCC(N2CCCC2)c2cccc-3c21` (stereo not drawn) [Compound 287, 15-Cyclohexyl-4-pyrrolidin-1-yl-5,6,8,9-tetrahydro-4H-indolo[1′,2′:4,5][1,4]diazepino[6,7,1-ij]quinoline-12-carboxylic acid] displayed an IC50 of 2.71 nM.
Compound `CC1(C)CN2CCn3c(c(C4CCCCC4)c4ccc(C(=O)O)cc43)-c3cccc(c32)[C@H]1N` [Compound 499] returned an IC50 of 4 nM. This IC50 and that of the compound before are within 1.5-fold of each other.
In the case of `CCN(CC)C1CCN2CCn3c(c(C4CCCCC4)c4ccc(C(=O)O)cc43)-c3cccc1c32` (stereo not drawn) [Compound 286] it was 4.33 nM; in that of `O=C(O)c1ccc2c(C3CCCCC3)c3n(c2c1)CCN1CCC(NC2CCCC2)c2cccc-3c21` (racemic) [Compound 280], 2.18 nM.
`CN(C)C(=O)c1c(CNS(=O)(=O)C2CC2)c2cccc3c2n1CCCn1c-3c(C2CCCCC2)c2ccc(C(=O)O)cc21` [Compound 310] yielded an IC50 of 6 nM.
The compound `CCN(C)Cc1c(C(=O)N(CC)CC)n2c3c(cccc13)-c1c(C3CCCCC3)c3ccc(C(=O)O)cc3n1CCC2` [Compound 317] had an IC50 of 5 nM. This IC50 and that of the compound before are within 1.5-fold of each other.
`CCN(C)Cc1c(C(=O)N2CCCC2)n2c3c(cccc13)-c1c(C3CCCCC3)c3ccc(C(=O)O)cc3n1CCC2` [Compound 320]: the 50% inhibitory concentration (IC50) stood at 3 nM.
The compound `CCN(C)Cc1c(C(=O)NC2CC2)n2c3c(cccc13)-c1c(C3CCCCC3)c3ccc(C(=O)O)cc3n1CCC2` [Compound 319] came in with an IC50 of 11 nM.
In the case of `NCCC1CCN2CCn3c(c(C4CCCCC4)c4ccc(C(=O)O)cc43)-c3cccc1c32` (stereo not drawn) [Compound 301, 4-(2-aminoethyl)-15-cyclohexyl-5,6,8,9-tetrahydro-4H-indolo[1′,2′:4,5][1,4]diazepino[6,7,1-ij]quinoline-12-carboxylic acid] it was 3.35 nM.
As for `O=C(O)c1ccc2c(C3CCCCC3)c3n(c2c1)CCN1CCC(NC2CCC2)c2cccc-3c21` (stereo not drawn) [Compound 279], the IC50 stood at 4.02 nM.
